Results published in article PMC11643516, “Design, Synthesis, Structural Insights, Tyrosinase Inhibition, and Sun Protection Factor of New Thiosemicarbazone Derivatives” (Molecules, 2024).
Structures can show the parent of a compound that is named as a salt. Where two headings read alike, the source gives them in different places.

Assays:
Tyrosinase = settings: L-DOPA as substrate, read-out: Tyrosinase Inhibitory Activity IC50, cited from earlier work
B16 melanoma cells = system: B16 melanoma cells; parameters: method as in PMID 20863702; settings: read-out: Anti-Melanogenesis Activity IC50; cited from earlier work
mushroom tyrosinase = assay: Mushroom tyrosinase inhibition assay (L-DOPA, dopachrome formation at 492 nm); type: biochemical; settings: L-DOPA substrate, pH 6.8, 37 °C; mean ± SD of triplicate experiments; read-out: IC50 against mushroom tyrosinase activity
Method: Mushroom Tyr inhibition was assessed as described previously with minor modifications. […] L-DOPA was then added and the dopachrome formation was monitored at 492 nm. The measurements were taken using a FLUOstar OPTIMA (BMG Labtech, Offenburg, Germany). The IC50 value was determined by analysing dose–response curves.

[1] = ABTS radical scavenging assay; settings: 734 nm after 1 min of incubation; mean ± SD of triplicate
Method: Samples of each compound (10 µL) were added to 990 µL of ABTS, and the reduction in the blue-green radical ABTS^+• by hydrogen-donating antioxidants was evaluated by measuring the absorbance at 734 nm after 1 min of incubation. All the measurements were carried out at least three times.

[2] = DPPH radical scavenging assay; settings: 0.1 mM DPPH, 30 min in the dark, 517 nm; mean ± SD of triplicate
Method: Radical scavenging activity of the thiosemicarbazone derivatives was estimated according to the previously reported method with slight modification using the stable DPPH radical. A solution of 0.1 mM DPPH radical was added to various concentrations of the compounds. The absorbance of the DPPH radical without an antioxidant, i.e., blank, was also measured. The mixture was shaken vigorously and kept at room temperature for 30 min in the dark. The absorbance of the reaction mixture was measured at 517 nm spectrophotometrically. All the determinations were performed in triplicate.

Row | SMILES | melting point [°C] | IC50 (mushroom tyrosinase) [nM] | ABTS (% I ± SD), percentage of inhibition of free radicals [1] [%] | DPPH (% I ± SD), percentage of inhibition of free radicals [2] [%] | further results
1 | NC(=S)N/N=C/c1ccc(OS(=O)(=O)c2ccccc2)cc1 (as salt: benzenesulfonate) [TCBS1, (E)-4-((2-carbamothioylhydrazineylidene)methyl)phenyl benzenesulfonate] | 159 to 160 |  |  |  | 
2 | NC(=S)N/N=C/c1ccc(OS(=O)(=O)c2ccc(Cl)cc2)cc1 (as salt: benzenesulfonate) [TCBS5, (E)-4-((2-carbamothioylhydrazineylidene)methyl)phenyl 4-chlorobenzenesulfonate] | 194 to 196 |  |  |  | 
3 | NC(=S)N/N=C/c1ccc(Cl)cc1 [Compound 1] |  |  |  |  | IC50 (Tyrosinase; ref 17): 840 nM; IC50 (Tyrosinase; ref 18): 1900 nM
4 | COc1ccc(/C=N/NC(N)=S)cc1 [Compound 2] |  |  |  |  | IC50 (Tyrosinase; ref 17): 440 nM; IC50 (Tyrosinase; ref 20): 1480 nM
5 | NC(=S)N/N=C/c1ccc([N+](=O)[O-])cc1 [Compound 3] |  |  |  |  | IC50 (Tyrosinase; ref 19): 1900 nM
6 | NC(=S)N/N=C/c1ccccc1 [Compound 4] |  |  |  |  | IC50 (B16 melanoma cells): > 10000 nM
7 | NC(=S)N/N=C/c1cccc2ccccc12 [Compound 5] |  |  |  |  | IC50 (B16 melanoma cells): 1100 nM
8 | NC(=S)N/N=C/c1ccncc1 [Compound 6] |  |  |  |  | IC50 (B16 melanoma cells): > 30000 nM
9 | NC(=S)N/N=C/c1ccc(OS(=O)(=O)c2ccccc2)cc1 [TCBS1, (E)-4-((2-carbamothioylhydrazineylidene)methyl)phenyl benzenesulfonate] |  | 440 ± 30 | 39 ± 1 | 26 ± 2 | 

Continued, in another order:

Row | melting point [°C] | IC50 (mushroom tyrosinase) [nM] | SMILES | ABTS (% I ± SD), percentage of inhibition of free radicals [1] [%] | DPPH (% I ± SD), percentage of inhibition of free radicals [2] [%] | further results
10 | 226 to 228 |  | NC(=S)N/N=C/c1ccc(OS(=O)(=O)c2ccc([N+](=O)[O-])cc2)cc1 (as salt: benzenesulfonate) [TCBS2, (E)-4-((2-carbamothioylhydrazineylidene)methyl)phenyl 4-nitrolbenzenesulfonate] |  |  | 
11 |  | 660 ± 50 | NC(=S)N/N=C/c1ccc(OS(=O)(=O)c2ccc([N+](=O)[O-])cc2)cc1 [TCBS2, (E)-4-((2-carbamothioylhydrazineylidene)methyl)phenyl 4-nitrolbenzenesulfonate] | 25 ± 4 | 16 ± 2 | 
12 | 154 to 156 | 440 ± 10 | COc1ccc(S(=O)(=O)Oc2ccc(/C=N/NC(N)=S)cc2)cc1 [TCBS3, (E)-4-((2-carbamothioylhydrazineylidene)methyl)phenyl 4-methoxylbenzenesulfonate] | 35 ± 1 | 33 ± 4 | 
13 | 195 to 197 | 440 ± 10 | Cc1ccc(S(=O)(=O)Oc2ccc(/C=N/NC(N)=S)cc2)cc1 [TCBS4, (E)-4-((2-carbamothioylhydrazineylidene)methyl)phenyl 4-methylbenzenesulfonate] | 30 ± 2 | 20 ± 1 | 
14 |  | 710 ± 20 | NC(=S)N/N=C/c1ccc(OS(=O)(=O)c2ccc(Cl)cc2)cc1 [TCBS5, (E)-4-((2-carbamothioylhydrazineylidene)methyl)phenyl 4-chlorobenzenesulfonate] | 22 ± 2 | 32 ± 5 | 
15 | 224 to 226 | 1600 ± 20 | CS(=O)(=O)Oc1ccc(/C=N/NC(N)=S)cc1 [TCMS1, (E)-4-((2-carbamothioylhydrazineylidene)methyl)phenyl methanesulfonate] | 42 ± 4 | 20 ± 2 | 
